The text below walks through data of patent US20220118117A1, “MODULATORS OF METABOTROPIC GLUTAMATE RECEPTOR 4” (The General Hospital Corporation, priority 2019, published 2022).

The target in one data set is mGluR4 (Homo sapiens, UniProt Q14833). The data set is described as follows: GloSensor cAMP biosensor assay, mGluR4 PAM and agonist activity. The note with it: in presence of EC20 concentration of agonist (1 μM L-SOP); read-out: EC50, mGluR4 PAM activity. The format is cell-based. Also on record: expressed in transfected cells. How it is done:
Cell Culture. HEK-293 cells were maintained with complete Dulbecco's modified Eagle's medium (DMEM), which was composed of 10% fetal bovine serum (FBS), 2 mM L-glutamine, 100 units/mL penicillin G, 100 μg/mL streptomycin at 37° C. in the presence of 5% CO2. HEK-293 stable cell lines with tetracycline inducible expression of mGluR1, mGluR2, mGluR4, mGluR6 or mGluR8 were maintained with complete DMEM with Hygromycin B (100 μg/mL), Blasticidin (15 μg/mL) at 37° C. in the presence of 5% CO2.
cAMP assay. The Gi/o coupled receptors (mGluR2, mGluR3, mGluR4, mGluR6 and mGluR8) were tested using cAMP assay. Promega's split luciferase based GloSensor cAMP biosensor technology was used in determining Gi-GPCR mediated cAMP production in live cells. On the cells stably expressing mGluR2, mGluR3, mGluR4, mGluR6 or mGluR8, GloSensor cAMP DNA construct was transfected overnight. Cells were seeded into PLL coated 384-well white clear bottom cell culture plates with complete BME Buffer with Tetracycline (1 μg/mL) at a density of 20,000 cells for another 24 h. The cell medium was removed and then 20 μL of buffer was loaded. […] Luminescence was counted in a Trilux luminescence counter. Data were analyzed with Prizm 5.0 (GraphPad software).
Secondary assays—Dose-response assays. […] For each compound, the results from four replicates were averaged and then either EC50 or IC50 values were calculated by non-linear regression using the 4-parameter logistic equation. […]
In sum, the mGluR4 PAM activity was determined using Promega's split luciferase based GloSensor cAMP biosensor assay (refs. 41-42). mGluR4 is coupling to Gαi protein to inhibit adenylate cyclase, which converts ATP to cAMP, which plays an important role in many signal transduction pathways. […] The mGluR4 PAM activity of 15 was evaluated in presence of EC20 concentration of agonist (1 μM L-SOP) by measuring changes in intracellular cAMP concentration.

Data set [1] is described as follows: PET imaging of [18F]15, baseline. The format is in vivo, Sprague Dawley rats. On the procedure: PET Imaging of [^18F]15 in Rats. Altogether 24 normal male Sprague Dawley rats were used for the imaging studies comprising 15 baseline studies and 15 blocking studies. Rats were anaesthetized with isoflurane/nitrous oxide (1.0-1.5% isoflurane, with oxygen flow of 1-1.5 L/min), and catheter was installed into tail vein for the administration of [^18F]15. Dynamic volumetric PET data was acquired with a PET-CT scanner for 60 min (Triumph-II, Tri-Foil Imaging, Northridge, Calif.). The vital signals such as heart rate and respiration rate were monitored during scanning period. PET data acquisition was started immediately after administration of radioactivity with the dose range of 18-34 MBq depending on the size of the rat followed by CT imaging to obtain anatomical information and data for attenuation correction of PET data. PET data was processed by using maximum-likelihood expectation-maximization (MLEM) algorithm with 30 iterations to dynamic volumetric images, and corrected for uniformity, scatter, and attenuation. The CT data was processed by the modified Feldkamp algorithm using matrix volumes of 512×512×512 and pixel size of […]. Co-registration of CT and PET images and analysis of PET images were carried out using PMOD3.2 software (PMOD Technology, Zurich, Switzerland).

A short description of data set [2]: ex vivo biodistribution of [18F]15. The settings on record: rat, iv. The data set is classed as in vivo, Sprague Dawley rats. On the procedure: Ex vivo Studies of Biodistribution. For biodistribution studies the normal male Sprague Dawley rats were anesthetized with isoflurane/nitrous oxide (1-1.5% isoflurane) to install catheter into the tail vain for administration of radioactivity ([^18F]15, 22±3 MBq, iv). Total of 15 rats in deep anesthesia (isoflurane 4% and cervical dislocation) were sacrificed in a group of three at five different time points (5, 10, 20, 30, and 60 min) after injection of [^18F]15. Major organs including lung, heart, liver, spleen, kidney, muscle, midbrain, cortex, cerebellum and blood were harvested to determine radioactivity. The tissue samples were weighted, and the radioactivity was measured with the standard samples of [^18F]15 using Wizard2 2480, Perkin Elmer, Calif. Radioactivity of the tissue samples was determined as percent of the injected activity per gram of the tissue.

Chain of mGluR4 (Q14833 33-912): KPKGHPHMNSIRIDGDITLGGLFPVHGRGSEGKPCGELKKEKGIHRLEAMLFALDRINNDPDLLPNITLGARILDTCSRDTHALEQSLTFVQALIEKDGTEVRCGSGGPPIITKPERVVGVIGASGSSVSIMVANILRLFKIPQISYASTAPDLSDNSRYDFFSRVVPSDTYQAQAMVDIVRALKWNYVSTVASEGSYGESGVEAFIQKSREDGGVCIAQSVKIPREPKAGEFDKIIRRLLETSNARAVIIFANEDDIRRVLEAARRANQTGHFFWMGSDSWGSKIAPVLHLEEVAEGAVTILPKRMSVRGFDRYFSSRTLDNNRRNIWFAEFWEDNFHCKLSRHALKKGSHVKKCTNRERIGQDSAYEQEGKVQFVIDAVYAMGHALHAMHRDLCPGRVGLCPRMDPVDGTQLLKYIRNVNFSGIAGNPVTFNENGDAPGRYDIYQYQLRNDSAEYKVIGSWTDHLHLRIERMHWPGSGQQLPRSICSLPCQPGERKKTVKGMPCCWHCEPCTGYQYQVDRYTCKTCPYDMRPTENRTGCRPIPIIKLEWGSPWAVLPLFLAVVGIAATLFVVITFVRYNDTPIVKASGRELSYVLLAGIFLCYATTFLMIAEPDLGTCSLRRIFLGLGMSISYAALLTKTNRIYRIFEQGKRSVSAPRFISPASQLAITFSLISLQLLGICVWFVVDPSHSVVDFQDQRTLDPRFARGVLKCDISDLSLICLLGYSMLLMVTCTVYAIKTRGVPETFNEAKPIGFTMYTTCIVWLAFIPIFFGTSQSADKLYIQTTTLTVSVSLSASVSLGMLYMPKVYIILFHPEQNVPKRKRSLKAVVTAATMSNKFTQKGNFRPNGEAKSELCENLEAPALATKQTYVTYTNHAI

The EC50 is the concentration giving half of the maximal effect. For `c1ccc(Nc2nc3c(s2)CCCc2[nH]ncc2-3)nc1` [Compound 11], the EC50 on mGluR4 worked out at 0.055 µM.

As to `[2H]C([2H])([18F])Sc1cc(NC(=O)c2ccccn2)ccc1Cl` [[^18F]15], the BBB crossing entry in data set [1] (PET, rat brain) is “crosses BBB”. Moreover, the “time of highest accumulation in the thalamus” value in data set [1] (after administration of the ligand) is “about 2 min”. Further, the “maximum average uptake in the thalamus” value in data set [1] (time interval of 1-10 min after administering) is 1.77±0.26 % ID/cc. The molecule also came in with an accumulation in brain in data set [2] (at 10 min) of 0.41±0.18 % ID/g. In data set [2] (at 20 min), the accumulation in heart is listed as 0.50±0.08 % ID/g, the accumulation in liver stood at 1.33±0.12 % ID/g and the accumulation in lungs came out at 0.58±0.17 % ID/g. Also, the accumulation in kidneys in data set [2] (at 30 min) is given as 0.93±0.57 % ID/g.
